Assays:
human V-1 receptor = target: T1, human V-1 receptor (Homo sapiens, UniProt P37288); test: In vitro recombinant vasopressin receptor binding assay (V1 Bdg), displacement of 3H-arginine vasopressin
T1 construct: expressed in transfected cells; host or cells: HEK-293
Procedure: In vitro Recombinant Vasopressin Receptor Binding Assay
Compounds were assessed for their ability to displace ^3H-arginine vasopressin from the human V-1 or V-2 receptor in HEK-293 cells. Assay buffer is 50 mM Tris-Cl, 5 mM MgCl2, 0.1% BSA (pH 7.5) containing 5 ug/ml of aprotinin, leupeptin, pepstatin, 50 ug/ml bacitracin, and 1 mM Pefabloc. ^3H-vasopressin is ^3H-arginine-8-vasopressin (68.5 Ci/mmol, final concentration in assay is 0.65-0.75 nM). Into wells of 96-well round bottom polypropylene plates were added buffer, test compound, membrane (containing cloned human V-1 or V-2 receptor), and ^3H-vasopressin. The reaction plates were allowed to sit at room temperature for one hour. The samples were filtered through Unifilter GF/C plates (presoaked in 0.3 polyethyleneimine). The plates were washed 5 times with cold physiological saline containing 0.05% Tween 20. After drying, the bottom of the filter plates were sealed and 0.025 ml of Microscint-20 was added to each filter. The top of the plate was sealed, and the plate was counted. Non-specific binding was determined by the addition of 1.25 uM arginine-8-vasopressin in those wells.

V2 = V2 (Homo sapiens, UniProt P30518); test: In vitro recombinant vasopressin receptor binding assay (V2 Bdg), displacement of 3H-arginine vasopressin; set-up: expressed in transfected cells; host or cells: HEK-293; conditions: 0.1 uM; printed in parentheses in place of IC50
How it was run: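 Displacement of ³H-vasopressin from membranes of HEK-293 cells bearing cloned human V-2 receptor, incubated with test compound one hour at room temperature. Bound label was collected on PEI-soaked GF/C filters, washed with cold saline/0.05% Tween 20, and counted by scintillation.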

V2, sequence (P30518 whole entry): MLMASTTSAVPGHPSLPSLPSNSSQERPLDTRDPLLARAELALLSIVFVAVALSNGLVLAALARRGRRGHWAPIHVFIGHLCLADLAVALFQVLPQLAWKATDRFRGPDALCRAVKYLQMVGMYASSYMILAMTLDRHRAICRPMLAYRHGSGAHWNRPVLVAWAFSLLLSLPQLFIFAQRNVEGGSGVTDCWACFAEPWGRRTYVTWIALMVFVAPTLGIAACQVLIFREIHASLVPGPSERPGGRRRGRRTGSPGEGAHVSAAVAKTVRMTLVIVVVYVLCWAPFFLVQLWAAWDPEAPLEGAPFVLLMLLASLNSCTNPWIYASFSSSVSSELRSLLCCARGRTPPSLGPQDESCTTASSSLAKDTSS
T1 sequence (P37288 whole entry): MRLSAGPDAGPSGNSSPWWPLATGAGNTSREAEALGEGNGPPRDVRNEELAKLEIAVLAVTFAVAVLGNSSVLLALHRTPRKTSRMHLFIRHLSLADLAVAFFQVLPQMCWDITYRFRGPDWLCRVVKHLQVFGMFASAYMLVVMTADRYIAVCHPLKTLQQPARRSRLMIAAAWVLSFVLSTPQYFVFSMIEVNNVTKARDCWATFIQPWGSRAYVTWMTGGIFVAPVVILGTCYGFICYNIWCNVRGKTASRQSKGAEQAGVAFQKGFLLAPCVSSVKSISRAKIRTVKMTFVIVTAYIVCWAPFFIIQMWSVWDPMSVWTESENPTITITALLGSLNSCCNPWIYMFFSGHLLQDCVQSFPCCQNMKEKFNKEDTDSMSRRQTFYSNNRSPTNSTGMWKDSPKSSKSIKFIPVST

Structure (SMILES) | V1 Bdg (% inh, 0.1 uM) (human V-1 receptor; 0.1 uM) | V2 Bdg % inh (V2) | V1 Bdg % inh (human V-1 receptor; 10 uM) | V1 Bdg % inh (human V-1 receptor; 1 uM)
Cc1c(I)cccc1C(=O)Nc1ccc(C(=O)N2CC3CSCCN3Cc3ccccc32)c(Cl)c1 (racemic) [Compound 44, (RS)-2-Methyl-3-iodo-N-[3-chloro-4-(1,3,4,12a-tetrahydro-6H-[1,4]thiazino[4,3-a][1,4]-benzodiazepin-11(12H)-yl-carbonyl)phenyl]benzamide] | 2% | (43%/0.1 uM) | – | –
O=CN1CCN2Cc3ccccc3N(C(=O)c3ccc(NC(=O)c4ccccc4-c4ccccc4)cc3)CC2C1 (racemic) [Compound 59, (RS)-2-Phenyl-N-[4-(1,3,4,12a-tetrahydro-2-formyl-6H-[1,4]pyrazino[4,3-a][1,4]-benzodiazepin-11(12H)-yl-carbonyl)phenyl]benzamide] | – | (29%/0.1 uM) | (17%/10 uM) | –
Cc1ccccc1C(=O)Nc1ccc(C(=O)N2CC3CN(C)CCN3Cc3ccccc32)c(Cl)c1 (racemic) [Compound 61, (RS)-2-Methyl-N-[3-chloro-4-(1,3,4,12a-tetrahydro-2-methyl-6H-[1,4]pyrazino[4,3-a][1,4]-benzodiazepin-11(12H)-yl-carbonyl)phenyl]benzamide] | – | (28%/0.I uM) | – | (21%/1 uM)
COc1ccc(-c2ccccc2C(=O)Nc2ccc(C(=O)N3CC4CN(C)CCN4Cc4ccccc43)c(Cl)c2)cc1 (racemic) [Compound 67, (RS)-2-(4-Methoxy-phenyl)-N-[3-chloro-4-(1,3,4,12a-tetrahydro-2-methyl-6H-[1,4]pyrazino[4,3-a][1,4]-benzodiazepin-11(12H)-yl-carbonyl)phenyl]benzamide] | – | (36%/0.1 uM) | – | (14%/1 uM)
COc1cccc(-c2ccccc2C(=O)Nc2ccc(C(=O)N3CC4CN(C)CCN4Cc4ccccc43)c(Cl)c2)c1 (racemic) [Compound 68, (RS)-2-(3-Methoxy-phenyl)-N-[3-chloro-4-(1,3,4,12a-tetrahydro-2-methyl-6H-[1,4]pyrazino[4,3-a][1,4]-benzodiazepin-11(12H)-yl-carbonyl)phenyl]benzamide] | – | (37%/0.1 uM) | – | (7%/1 uM)
CN1CCN2Cc3ccccc3N(C(=O)c3ccc(NC(=O)c4ccccc4-c4ccccc4)cc3)CC2C1 (racemic) [Compound 69, (RS)-2-Phenyl-N-[4-(1,3,4,12a-tetrahydro-2-methyl-6H-[1,4]pyrazino[4,3-a][1,4]-benzodiazepin-11(12H)-yl-carbonyl)phenyl]benzamide] | – | (38%/0.1 uM) | – | (22%/1 uM)
CN1CCN2Cc3ccccc3N(C(=O)c3ccc(NC(=O)c4ccccc4-c4ccccc4)cc3F)CC2C1 (racemic) [Compound 70, (RS)-2-Phenyl-N-[3-fluoro-4-(1,3,4,12a-tetrahydro-2-methyl-6H-[1,4]pyrazino[4,3-a][1,4]-benzodiazepin-11(12H)-yl-carbonyl)phenyl]benzamide] | – | (44%/0.1 uM) | – | (9%/1 uM)
COc1cc(C(=O)N2CC3CN(C)CCN3Cc3ccccc32)ccc1NC(=O)c1ccccc1-c1ccccc1 (racemic) [Compound 72, (RS)-2-Phenyl-N-[2-methoxy-4-(1,3,4,12a-tetrahydro-2-methyl-6H-[1,4]pyrazino[4,3-a][1,4]-benzodiazepin-11(12H)-yl-carbonyl)phenyl]benzamide] | – | (48%/0.1 uM) | – | (6%/1 uM)
Cc1ccc(-c2ccccc2C(=O)Nc2ccc(C(=O)N3CC4CN(C)CCN4Cc4ccccc43)c(C(F)(F)F)c2)cc1 (racemic) [Compound 76, (RS)-2-(4-Methyl-phenyl)-N-[3-trifluoromethyl-4-(1,3,4,12a-tetrahydro-2-methyl-6H-[1,4]pyrazino[4,3-a][1,4]-benzodiazepin-11(12H)-yl-carbonyl)phenyl]benzamide] | – | (50%/0.1 uM) | – | (18%/1 uM)
Cc1cc(C(=O)N2CC3CN(C)CCN3Cc3ccccc32)ccc1NC(=O)c1ccccc1-c1ccccc1 (racemic) [Compound 78, (RS)-2-Phenyl-N-[2-methyl-4-(1,3,4,12a-tetrahydro-2-methyl-6H-[1,4]pyrazino[4,3-a][1,4]-benzodiazepin-11(12H)-yl-carbonyl)phenyl]benzamide] | – | (5%/0.1 uM) | – | (2%/1 uM)
Cc1ccccc1C(=O)Nc1c(C)cc(C(=O)N2CC3CN(C)CCN3Cc3ccccc32)cc1C (racemic) [Compound 80, (RS)-2-Methyl-N-[2,6-dimethyl-4-(1,3,4,12a-tetrahydro-2-methyl-6H-[1,4]pyrazino[4,3-a][1,4]-benzodiazepin-11(12H)-yl-carbonyl)phenyl]benzamide] | – | (6%/0.1 uM) | – | (19%/1 uM)
COc1cc(NC(=O)c2ccccc2C)ccc1C(=O)N1CC2CN(C)CCN2Cc2ccccc21 (racemic) [Compound 83, (RS)-2-Methyl-N-[3-methoxy-4-(1,3,4,12a-tetrahydro-2-methyl-6H-[1,4]pyrazino[4,3-a][1,4]-benzodiazepin-11(12H)-yl-carbonyl)phenyl]benzamide] | – | (10%/0.1 uM) | – | (44%/1 uM)
COc1cc(NC(=O)c2ccccc2-c2ccccc2)ccc1C(=O)N1CC2CN(C)CCN2Cc2ccccc21 (racemic) [Compound 84, (RS)-2-Phenyl-N-[3-methoxy-4-(1,3,4,12a-tetrahydro-2-methyl-6H-[1,4]pyrazino[4,3-a][1,4]-benzodiazepin-11(12H)-yl-carbonyl)phenyl]benzamide] | – | (36%/0.1 uM) | – | (10%/1 uM)
COc1cc(NC(=O)c2ccccc2-c2ccc(C)cc2)ccc1C(=O)N1CC2CN(C)CCN2Cc2ccccc21 (racemic) [Compound 85, (RS)-2-(4-Methyl-phenyl)-N-[3-methoxy-4-(1,3,4,12a-tetrahydro-2-methyl-6H-[1,4]pyrazino[4,3-a][1,4]-benzodiazepin-11(12H)-yl-carbonyl)phenyl]benzamide] | – | (54%/0.1 uM) | – | (19%/1 uM)
Cc1ccccc1C(=O)Nc1ccc(C(=O)N2CC3CN(C)CCN3Cc3ccccc32)cc1 (racemic) [Compound 86, (RS)-2-Methyl-N-[4-(1,3,4,12a-tetrahydro-2-methyl-6H-[1,4]pyrazino[4,3-a][1,4]-benzodiazepin-11(12H)-yl-carbonyl)phenyl]benzamide] | – | (1%/0.1 uM) | – | (33%/1 uM)
Cc1cc(NC(=O)c2ccccc2-c2ccccc2)ccc1C(=O)N1CC2CN(C)CCN2Cc2ccccc21 (racemic) [Compound 89, (RS)-2-Phenyl-N-[3-methyl-4-(1,3,4,12a-tetrahydro-2-methyl-6H-[1,4]pyrazino[4,3-a][1,4]-benzodiazepin-11(12H)-yl-carbonyl)phenyl]benzamide] | – | (56%/0.1 uM) | – | (51%/1 uM)
O=C(Nc1ccc(C(=O)N2CC3CN(CC(F)(F)F)CCN3Cc3ccccc32)c(Cl)c1)c1ccccc1-c1ccccc1 (racemic) [Compound 91, (RS)-2-Phenyl-N-[3-chloro-4-(1,3,4,12a-tetrahydro-2-(2,2,2-trifluoroethyl)-6H-[1,4]pyrazino[4,3-a][1,4]-benzodiazepin-11(12H)-yl-carbonyl)phenyl]benzamide] | – | (31%/0.1 uM) | – | (2%/1 uM)
CN1CCN2Cc3ccccc3N(C(=O)c3ccc(NC(=O)c4cc(F)c(F)c(F)c4F)cc3Cl)CC2C1 (racemic) [Compound 93, (RS)-2,3,4,5-Tetrafluoro-N-[3-chloro-4-(1,3,4,12a-tetrahydro-2-methyl-6H-(1,4]pyrazino[4,3-a][1,4]-benzodiazepin-11(12H)-yl-carbonyl)phenyl]benzamide] | – | (24%/0.1 uM) | – | (49%/1 uM)
Cc1ccc(F)c(C(=O)Nc2ccc(C(=O)N3CC4CN(C)CCN4Cc4ccccc43)c(Cl)c2)c1 (racemic) [Compound 96, (RS)-2-Fluoro-5-methyl-N-[3-chloro-4-(1,3,4,12a-tetrahydro-2-methyl-6H-[1,4]pyrazino[4,3-a][1,4]-benzodiazepin-11(12H)-yl-carbonyl)phenyl]benzamide] | – | (3%/0.1 uM) | – | (9%/1 uM)
CN1CCN2Cc3ccccc3N(C(=O)c3ccc(NC(=O)c4cccc(Cl)c4Cl)cc3Cl)CC2C1 (racemic) [Compound 97, (RS)-2,3-Dichloro-N-[3-chloro-4-(1,3,4,12a-tetrahydro-2-methyl-6H-[1,4]pyrazino[4,3-a][1,4]-benzodiazepin-11(12H)-yl-carbonyl)phenyl]benzamide] | – | (9%/0.1 uM) | – | (21%/1 uM)

— US6713475B2, “Tricyclic benzodiazepines as vasopressin receptor antagonists” (Ortho-McNeil Pharmaceutical, Inc., priority 1999, dated 2004)
